Legend:
[1] = system: TRZAWR (Wheat, Winter, cv Riband); test: Preemergence herbicidal evaluation; type: in vivo, Triticum aestivum; details: rated 4-5 weeks after treatment
Method in brief: (§1)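 Steps: mix seeds into potting soil; plant atop ~1 inch soil; spray compound in aqueous acetone (~0.0156-0.500 kg/ha equivalent); maintain in greenhouse with watering; rate visually 0-9 versus control at 4-5 weeks.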

[2] = system: CASOB (Sicklepod); test: Postemergence herbicidal evaluation; type: in vivo, Cassia obtusifolia; details: postemergence
Method in brief: (§2)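 ~2-wk seedlings; postemergence spray, 40 psi; vehicle 1:1 acetone:water + 0.5% Tween 20; rate ≈0.0156–0.500 kg/ha; greenhouse hold; scored 4–5 wk after treatment, 0–9 scale vs control; repeat tests averaged.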

[3] = system: ORYSAT (Rice, Tebonnet); test: Preemergence herbicidal evaluation; type: in vivo, Oryza sativa, (L.) Tebonnet; details: rated 4-5 weeks after treatment
Method in brief: as §1

[4] = system: ECHORC (Watergrass (Calif.)); test: Postemergence weed control under flooded paddy conditions; type: in vivo, Echinochloa oryzoides; details: postemergence weeds
Method in brief: (§3)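 Flood-water application, about 0.0313–0.500 kg/ha a.i. in aqueous/acetone 50/50 v/v; water depth 1.5–3 cm throughout. Weeds 3–5 cm, rice 1.5–2.5 leaf. Greenhouse; 0–9 visual rating vs control at 3–4 wk.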

[5] = system: AMBEL (Ragweed, Common); test: Preemergence herbicidal evaluation; type: in vivo, Ambrosia artemisifolia; details: rated 4-5 weeks after treatment
Method in brief: as §1

[6] = system: CYPSE (Flatsedge); test: Postemergence weed control under flooded paddy conditions; type: in vivo, Cyperus serotinus; details: postemergence weeds
Method in brief: as §3

[7] = system: CHEAL (Lambsquarters, Common); test: Preemergence herbicidal evaluation; type: in vivo, Chenopodium album; details: rated 4-5 weeks after treatment
Method in brief: as §1

[8] = system: CYPSE (Flatsedge); test: Preemergence weed control under flooded paddy conditions; type: in vivo, Cyperus serotinus; details: rated 3-4 weeks after treatment
Method in brief: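 Herbicidal effect is scored visually on a 0-9 scale against an untreated control, three to four weeks after compounds are pipetted into the flood water (1.5 to 3 cm deep) over seeds planted in silt loam at 0.5 cm depth. Rates: about 0.0313 to 0.500 kg/ha.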

[9] = system: IPOHE (Morningglory, Ivyleaf); test: Preemergence herbicidal evaluation; type: in vivo, Ipomoea hederacea; details: rated 4-5 weeks after treatment
Method in brief: as §1

[10] = system: ZEAMX (Corn, Field); test: Preemergence herbicidal evaluation; type: in vivo, Zea mays; details: rated 4-5 weeks after treatment
Method in brief: as §1

[11] = system: GALAP (Galium); test: Postemergence herbicidal evaluation; type: in vivo, Galium aparine; details: postemergence
Method in brief: as §2

[12] = system: CYPIR (Rice Flatsedge); test: Preemergence weed control under flooded paddy conditions; type: in vivo, Cyperus iria; details: rated 3-4 weeks after treatment
Method in brief: (§4)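 Ratings on a 0-9 visual scale cover stand, vigor, malformation, size, chlorosis and overall appearance relative to a control, taken three to four weeks post-treatment. Application was into flood water over freshly sown silt loam at roughly 0.0313 to 0.500 kg/ha.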

[13] = system: ECHORC (Watergrass (Calif.)); test: as above; type: in vivo, Echinochloa oryzoides; details: rated 3-4 weeks after treatment
Method in brief: as §4

[14] = system: ZEAMX (Corn, Field); test: Postemergence herbicidal evaluation; type: in vivo, Zea mays; details: postemergence
Method in brief: as §2

[15] = rate 0.0313 kg/ha, 3-4 weeks after treatment
[16] = rate 0.0625 kg/ha, 3-4 weeks after treatment
[17] = rate 0.1250 kg/ha, 3-4 weeks after treatment
[18] = rate 0.2500 kg/ha, 3-4 weeks after treatment
[19] = Rate 0.0313 kg/ha, rated 3 to 4 weeks after treatment
[20] = Rate 0.0625 kg/ha, rated 3 to 4 weeks after treatment
[21] = Rate 0.1250 kg/ha, rated 3 to 4 weeks after treatment
[22] = Rate 0.2500 kg/ha, rated 3 to 4 weeks after treatment

CN1C(=O)CS/C1=N/c1cc(-n2c(=O)cc(C(F)(F)F)n(C)c2=O)c(F)cc1Cl [Compound 7]
TRZAWR preemergence herbicidal rating ([1]; rate 0.0157 kg/ha): 5.0
TRZAWR preemergence herbicidal rating ([1]; rate 0.0313 kg/ha): 6.5
TRZAWR preemergence herbicidal rating ([1]; rate 0.0625 kg/ha): 7.5
TRZAWR preemergence herbicidal rating ([1]; rate 0.1250 kg/ha): 8.5
TRZAWR preemergence herbicidal rating ([1]; rate 0.2500 kg/ha): 8.5
CASOB herbicidal rating ([2]; rate 0.0157 kg/ha): 4.0
CASOB herbicidal rating ([2]; rate 0.0313 kg/ha): 5.0
CASOB herbicidal rating ([2]; rate 0.0625 kg/ha): 5.0
CASOB herbicidal rating ([2]; rate 0.1250 kg/ha): 7.0
ORYSAT preemergence herbicidal rating ([3]; rate 0.0157 kg/ha): 5.0
ORYSAT preemergence herbicidal rating ([3]; rate 0.0313 kg/ha): 7.5
ORYSAT preemergence herbicidal rating ([3]; rate 0.0625 kg/ha): 8.0
ORYSAT preemergence herbicidal rating ([3]; rate 0.1250 kg/ha): 8.5
ORYSAT preemergence herbicidal rating ([3]; rate 0.2500 kg/ha): 9.0
Herbicidal rating ECHORC [4, 15]: 7.0
Herbicidal rating ECHORC [4, 16]: 8.5
Herbicidal rating ECHORC [4, 17]: 9.0
Herbicidal rating ECHORC [4, 18]: 9.0
AMBEL preemergence herbicidal rating ([5]; rate 0.0157 kg/ha): 5.0
AMBEL preemergence herbicidal rating ([5]; rate 0.0313 kg/ha): 8.5
AMBEL preemergence herbicidal rating ([5]; rate 0.0625 kg/ha): 9.0
AMBEL preemergence herbicidal rating ([5]; rate 0.1250 kg/ha): 9.0
AMBEL preemergence herbicidal rating ([5]; rate 0.2500 kg/ha): 9.0
Herbicidal rating CYPSE [6, 15]: 3.0
Herbicidal rating CYPSE [6, 16]: 7.0
Herbicidal rating CYPSE [6, 17]: 7.5
Herbicidal rating CYPSE [6, 18]: 8.0
CHEAL preemergence herbicidal rating ([7]; rate 0.0157 kg/ha): 9.0
CHEAL preemergence herbicidal rating ([7]; rate 0.0313 kg/ha): 9.0
CHEAL preemergence herbicidal rating ([7]; rate 0.0625 kg/ha): 9.0
CHEAL preemergence herbicidal rating ([7]; rate 0.1250 kg/ha): 9.0
CHEAL preemergence herbicidal rating ([7]; rate 0.2500 kg/ha): 9.0
Herbicidal rating CYPSE ([8]; 0.0313 kg/ha): 4.0
Herbicidal rating CYPSE ([8]; 0.0625 kg/ha): 7.0
Herbicidal rating CYPSE ([8]; 0.1250 kg/ha): 7.0
Herbicidal rating CYPSE ([8]; 0.2500 kg/ha): 9.0
IPOHE preemergence herbicidal rating ([9]; rate 0.0313 kg/ha): 4.0
IPOHE preemergence herbicidal rating ([9]; rate 0.0625 kg/ha): 4.0
IPOHE preemergence herbicidal rating ([9]; rate 0.1250 kg/ha): 9.0
IPOHE preemergence herbicidal rating ([9]; rate 0.2500 kg/ha): 9.0
ZEAMX preemergence herbicidal rating ([10]; rate 0.0157 kg/ha): 7.0
ZEAMX preemergence herbicidal rating ([10]; rate 0.0313 kg/ha): 8.0
ZEAMX preemergence herbicidal rating ([10]; rate 0.0625 kg/ha): 8.5
ZEAMX preemergence herbicidal rating ([10]; rate 0.1250 kg/ha): 8.5
ZEAMX preemergence herbicidal rating ([10]; rate 0.2500 kg/ha): 9.0
GALAP herbicidal rating ([11]; rate 0.0157 kg/ha): 3.0
GALAP herbicidal rating ([11]; rate 0.0313 kg/ha): 4.0
GALAP herbicidal rating ([11]; rate 0.0625 kg/ha): 5.0
GALAP herbicidal rating ([11]; rate 0.1250 kg/ha): 9.0
Herbicidal rating CYPIR ([12]; 0.0313 kg/ha): 8.0
Herbicidal rating CYPIR ([12]; 0.0625 kg/ha): 9.0
Herbicidal rating CYPIR ([12]; 0.1250 kg/ha): 9.0
Herbicidal rating CYPIR ([12]; 0.2500 kg/ha): 9.0
Herbicidal rating ECHORC ([13]; 0.0313 kg/ha): 8.0
Herbicidal rating ECHORC ([13]; 0.0625 kg/ha): 9.0
Herbicidal rating ECHORC ([13]; 0.1250 kg/ha): 9.0
Herbicidal rating ECHORC ([13]; 0.2500 kg/ha): 9.0
ZEAMX herbicidal rating ([14]; rate 0.0157 kg/ha): 5.0
ZEAMX herbicidal rating ([14]; rate 0.0313 kg/ha): 6.0
ZEAMX herbicidal rating ([14]; rate 0.0625 kg/ha): 7.0
ZEAMX herbicidal rating ([14]; rate 0.1250 kg/ha): 7.0

C[C@@H](C(=O)OC(C)(C)C)N1C(=O)CSC1=Nc1cc(-n2c(=O)cc(C(F)(F)F)n(C)c2=O)c(F)cc1Cl [Compound 75, tert-Butyl 2-{{2-chloro-5-[3,6-dihydro-3-methyl-2,6-dioxo-4-(trifluoromethyl)-1(2H)-pyrimidinyl]-4-fluorophenyl}imino}-α-methyl-4-oxo-3-thiazolidineacetate, L-]
Preemergence herbicidal rating TRZAWR ([1]; rate 0.0156 kg/ha): 0.0
Preemergence herbicidal rating TRZAWR ([1]; rate 0.0313 kg/ha): 0.0
Preemergence herbicidal rating TRZAWR ([1]; rate 0.0625 kg/ha): 0.0
Preemergence herbicidal rating TRZAWR ([1]; rate 0.1250 kg/ha): 1.0
Preemergence herbicidal rating TRZAWR ([1]; rate 0.2500 kg/ha): 2.0
CASOB herbicidal rating ([2]; rate 0.0158 kg/ha): 1.0
CASOB herbicidal rating ([2]; rate 0.0315 kg/ha): 1.0
CASOB herbicidal rating ([2]; rate 0.0630 kg/ha): 3.0
Preemergence herbicidal rating ORYSAT ([3]; rate 0.0156 kg/ha): 0.0
Preemergence herbicidal rating ORYSAT ([3]; rate 0.0313 kg/ha): 0.0
Preemergence herbicidal rating ORYSAT ([3]; rate 0.0625 kg/ha): 0.0
Preemergence herbicidal rating ORYSAT ([3]; rate 0.1250 kg/ha): 1.0
Preemergence herbicidal rating ORYSAT ([3]; rate 0.2500 kg/ha): 2.0
Herbicidal rating ECHORC [4, 19]: 6.0
Herbicidal rating ECHORC [4, 20]: 6.0
Herbicidal rating ECHORC [4, 21]: 9.0
Herbicidal rating ECHORC [4, 22]: 9.0
Preemergence herbicidal rating AMBEL ([5]; rate 0.0156 kg/ha): 0.0
Preemergence herbicidal rating AMBEL ([5]; rate 0.0313 kg/ha): 0.0
Preemergence herbicidal rating AMBEL ([5]; rate 0.0625 kg/ha): 1.0
Preemergence herbicidal rating AMBEL ([5]; rate 0.1250 kg/ha): 6.0
Preemergence herbicidal rating AMBEL ([5]; rate 0.2500 kg/ha): 7.0
Herbicidal rating CYPSE [6, 19]: 2.0
Herbicidal rating CYPSE [6, 20]: 3.0
Herbicidal rating CYPSE [6, 21]: 3.0
Herbicidal rating CYPSE [6, 22]: 3.0
Preemergence herbicidal rating CHEAL ([7]; rate 0.0156 kg/ha): 9.0
Preemergence herbicidal rating CHEAL ([7]; rate 0.0313 kg/ha): 9.0
Preemergence herbicidal rating CHEAL ([7]; rate 0.0625 kg/ha): 9.0
Preemergence herbicidal rating CHEAL ([7]; rate 0.1250 kg/ha): 9.0
Preemergence herbicidal rating CHEAL ([7]; rate 0.2500 kg/ha): 9.0
CYPSE herbicidal effect rating ([8]; 0.0313 kg/ha): 2.0
CYPSE herbicidal effect rating ([8]; 0.0625 kg/ha): 3.0
CYPSE herbicidal effect rating ([8]; 0.1250 kg/ha): 3.0
CYPSE herbicidal effect rating ([8]; 0.2500 kg/ha): 3.0
Preemergence herbicidal rating IPOHE ([9]; rate 0.0156 kg/ha): 0.0
Preemergence herbicidal rating IPOHE ([9]; rate 0.0313 kg/ha): 0.0
Preemergence herbicidal rating IPOHE ([9]; rate 0.0625 kg/ha): 0.0
Preemergence herbicidal rating IPOHE ([9]; rate 0.1250 kg/ha): 0.0
Preemergence herbicidal rating IPOHE ([9]; rate 0.2500 kg/ha): 2.0
Preemergence herbicidal rating ZEAMX ([10]; rate 0.0156 kg/ha): 0.0
Preemergence herbicidal rating ZEAMX ([10]; rate 0.0313 kg/ha): 0.0
Preemergence herbicidal rating ZEAMX ([10]; rate 0.0625 kg/ha): 0.0
Preemergence herbicidal rating ZEAMX ([10]; rate 0.1250 kg/ha): 1.0
Preemergence herbicidal rating ZEAMX ([10]; rate 0.2500 kg/ha): 3.0
GALAP herbicidal rating ([11]; rate 0.0158 kg/ha): 1.0
GALAP herbicidal rating ([11]; rate 0.0315 kg/ha): 2.0
GALAP herbicidal rating ([11]; rate 0.0630 kg/ha): 5.0
CYPIR herbicidal effect rating ([12]; 0.0313 kg/ha): 0.0
CYPIR herbicidal effect rating ([12]; 0.0625 kg/ha): 0.0
CYPIR herbicidal effect rating ([12]; 0.1250 kg/ha): 6.0
CYPIR herbicidal effect rating ([12]; 0.2500 kg/ha): 6.0
ECHORC herbicidal effect rating ([13]; 0.0313 kg/ha): 6.0
ECHORC herbicidal effect rating ([13]; 0.0625 kg/ha): 6.0
ECHORC herbicidal effect rating ([13]; 0.1250 kg/ha): 9.0
ECHORC herbicidal effect rating ([13]; 0.2500 kg/ha): 9.0
ZEAMX herbicidal rating ([14]; rate 0.0158 kg/ha): 4.0
ZEAMX herbicidal rating ([14]; rate 0.0315 kg/ha): 4.5
ZEAMX herbicidal rating ([14]; rate 0.0630 kg/ha): 5.0
